Results: article PMC10492782, “Exploiting the aggregation propensity of beta-lactamases to design inhibitors that induce enzyme misfolding” (Nature Communications, 2023)

The compounds below were run on E. coli TEM-30 (assay: not given). Settings: E. coli TEM-30.
Format: cell-based, Escherichia coli
Description: (§1) Beta-lactamase clinical samples were collected from University Hospitals Leuven and tested for ESBL production using the disk diffusion method. The beta-lactamase reference isolates were purchased from International Health Management Associates (IHMA). Bacterial strains were cultivated in Mueller–Hinton Broth (MHB, Difco) at 37 °C. Whenever required, growth media were supplemented with appropriate antibiotics to the medium or plates (kanamycin 30 µg/mL, L-arabinose 0.5 mg/mL, and IPTG […]). Escherichia coli BL21 (ThermoFisher Scientific, Belgium) was used for cloning and plasmid amplification. For the selection of antibiotic resistant colonies, E. coli carrying plasmids was grown in LB agar plates supplemented with the relevant antibiotic. Bacterial CFU counting was done on blood agar plates (BD Biosciences, Belgium) or MHA agar plates. Species identification and antibiograms for all clinical isolates were performed using MALDI-Tof and VITEK® 2 automated system (BioMérieux, France).
(§2) Khodaparast et al Supplementary data
(§3) study. […] Abbreviations: S,
(§4) susceptible; I, intermediate; R, resistant.

Row | SMILES | Interoretation
1 | O=C1CN(/N=C/c2ccc([N+](=O)[O-])o2)C(=O)N1 [Nitrofurantoin] | S
2 | C[C@H]1COc2c(N3CCN(C)CC3)c(F)cc3c(=O)c(C(=O)O)cn1c23 [Levofloxacin] | R
3 | CO[C@@]1(NC(=O)Cc2cccs2)C(=O)N2C(C(=O)O)=C(COC(N)=O)CS[C@@H]21 [Cefoxitin] | S
4 | CNC(C)C1CCC(N)C(OC2C(N)CC(N)C(OC3OCC(C)(O)C(NC)C3O)C2O)O1 (stereo not shown) [Gentamicin] | R

Same assay, conditions: VITEK 2 AST card

Row | SMILES | Interpretation
5 | O=C1CN(/N=C/c2ccc([N+](=O)[O-])o2)C(=O)N1 [Nitrofurantoin] | S
6 | C[C@H]1COc2c(N3CCN(C)CC3)c(F)cc3c(=O)c(C(=O)O)cn1c23 [Levofloxacin] | R
7 | CO[C@@]1(NC(=O)Cc2cccs2)C(=O)N2C(C(=O)O)=C(COC(N)=O)CS[C@@H]21 [Cefoxitin] | S
8 | CNC(C)C1CCC(N)C(OC2C(N)CC(N)C(OC3OCC(C)(O)C(NC)C3O)C2O)O1 (stereo not shown) [Gentamicin] | R

What follows are compounds tested on E. coli NDM5a (assay: VITEK 2 AST antimicrobial susceptibility testing). Settings: E. coli NDM5a.
Format: cell-based, Escherichia coli
Description: as §1, §2, §3, §4

Row | SMILES | Interoretation
9 | O=C1CN(/N=C/c2ccc([N+](=O)[O-])o2)C(=O)N1 [Nitrofurantoin] | R
10 | C[C@H]1COc2c(N3CCN(C)CC3)c(F)cc3c(=O)c(C(=O)O)cn1c23 [Levofloxacin] | R
11 | CO[C@@]1(NC(=O)Cc2cccs2)C(=O)N2C(C(=O)O)=C(COC(N)=O)CS[C@@H]21 [Cefoxitin] | R
12 | CNC(C)C1CCC(N)C(OC2C(N)CC(N)C(OC3OCC(C)(O)C(NC)C3O)C2O)O1 (stereo not shown) [Gentamicin] | R

Same assay, conditions: VITEK 2 AST card

Row | SMILES | Interpretation
13 | O=C1CN(/N=C/c2ccc([N+](=O)[O-])o2)C(=O)N1 [Nitrofurantoin] | R
14 | C[C@H]1COc2c(N3CCN(C)CC3)c(F)cc3c(=O)c(C(=O)O)cn1c23 [Levofloxacin] | R
15 | CO[C@@]1(NC(=O)Cc2cccs2)C(=O)N2C(C(=O)O)=C(COC(N)=O)CS[C@@H]21 [Cefoxitin] | R
16 | CNC(C)C1CCC(N)C(OC2C(N)CC(N)C(OC3OCC(C)(O)C(NC)C3O)C2O)O1 (stereo not shown) [Gentamicin] | R

Each compound was assayed on E. coli NDM5b (assay: VITEK 2 AST antimicrobial susceptibility testing). Settings: E. coli NDM5b.
Format: cell-based, Escherichia coli
Description: as §1, §2, §3, §4

Row | SMILES | Interoretation
17 | O=C1CN(/N=C/c2ccc([N+](=O)[O-])o2)C(=O)N1 [Nitrofurantoin] | R
18 | C[C@H]1COc2c(N3CCN(C)CC3)c(F)cc3c(=O)c(C(=O)O)cn1c23 [Levofloxacin] | R
19 | CO[C@@]1(NC(=O)Cc2cccs2)C(=O)N2C(C(=O)O)=C(COC(N)=O)CS[C@@H]21 [Cefoxitin] | R
20 | CNC(C)C1CCC(N)C(OC2C(N)CC(N)C(OC3OCC(C)(O)C(NC)C3O)C2O)O1 (stereo not shown) [Gentamicin] | S

Same assay, conditions: VITEK 2 AST card

Row | SMILES | Interpretation
21 | O=C1CN(/N=C/c2ccc([N+](=O)[O-])o2)C(=O)N1 [Nitrofurantoin] | R
22 | C[C@H]1COc2c(N3CCN(C)CC3)c(F)cc3c(=O)c(C(=O)O)cn1c23 [Levofloxacin] | R
23 | CO[C@@]1(NC(=O)Cc2cccs2)C(=O)N2C(C(=O)O)=C(COC(N)=O)CS[C@@H]21 [Cefoxitin] | R
24 | CNC(C)C1CCC(N)C(OC2C(N)CC(N)C(OC3OCC(C)(O)C(NC)C3O)C2O)O1 (stereo not shown) [Gentamicin] | S

Each compound was assayed on E. coli SHV1 (APHA) (assay: VITEK 2 AST antimicrobial susceptibility testing). Settings: E. coli SHV154.
Format: cell-based, Escherichia coli
Description: as §1, §2, §3, §4

Row | SMILES | Interoretation
25 | O=C1CN(/N=C/c2ccc([N+](=O)[O-])o2)C(=O)N1 [Nitrofurantoin] | S
26 | C[C@H]1COc2c(N3CCN(C)CC3)c(F)cc3c(=O)c(C(=O)O)cn1c23 [Levofloxacin] | S
27 | CO[C@@]1(NC(=O)Cc2cccs2)C(=O)N2C(C(=O)O)=C(COC(N)=O)CS[C@@H]21 [Cefoxitin] | R
28 | CNC(C)C1CCC(N)C(OC2C(N)CC(N)C(OC3OCC(C)(O)C(NC)C3O)C2O)O1 (stereo not shown) [Gentamicin] | R

Same assay, conditions: VITEK 2 AST card

Row | SMILES | Interpretation
29 | O=C1CN(/N=C/c2ccc([N+](=O)[O-])o2)C(=O)N1 [Nitrofurantoin] | S
30 | C[C@H]1COc2c(N3CCN(C)CC3)c(F)cc3c(=O)c(C(=O)O)cn1c23 [Levofloxacin] | S
31 | CO[C@@]1(NC(=O)Cc2cccs2)C(=O)N2C(C(=O)O)=C(COC(N)=O)CS[C@@H]21 [Cefoxitin] | R
32 | CNC(C)C1CCC(N)C(OC2C(N)CC(N)C(OC3OCC(C)(O)C(NC)C3O)C2O)O1 (stereo not shown) [Gentamicin] | R

Each compound was assayed on E. coli TEM-104 (assay: VITEK 2 AST antimicrobial susceptibility testing). Settings: E. coli TEM-104.
Format: cell-based, Escherichia coli
Description: as §1, §2, §3, §4

Row | SMILES | Interoretation
33 | O=C1CN(/N=C/c2ccc([N+](=O)[O-])o2)C(=O)N1 [Nitrofurantoin] | S
34 | C[C@H]1COc2c(N3CCN(C)CC3)c(F)cc3c(=O)c(C(=O)O)cn1c23 [Levofloxacin] | S
35 | CO[C@@]1(NC(=O)Cc2cccs2)C(=O)N2C(C(=O)O)=C(COC(N)=O)CS[C@@H]21 [Cefoxitin] | S
36 | CNC(C)C1CCC(N)C(OC2C(N)CC(N)C(OC3OCC(C)(O)C(NC)C3O)C2O)O1 (stereo not shown) [Gentamicin] | S

Same assay, conditions: VITEK 2 AST card

Row | SMILES | Interpretation
37 | O=C1CN(/N=C/c2ccc([N+](=O)[O-])o2)C(=O)N1 [Nitrofurantoin] | S
38 | C[C@H]1COc2c(N3CCN(C)CC3)c(F)cc3c(=O)c(C(=O)O)cn1c23 [Levofloxacin] | S
39 | CO[C@@]1(NC(=O)Cc2cccs2)C(=O)N2C(C(=O)O)=C(COC(N)=O)CS[C@@H]21 [Cefoxitin] | S
40 | CNC(C)C1CCC(N)C(OC2C(N)CC(N)C(OC3OCC(C)(O)C(NC)C3O)C2O)O1 (stereo not shown) [Gentamicin] | S

The compounds below were run on E. coli TEM-148 (assay: VITEK 2 AST antimicrobial susceptibility testing). Settings: E. coli TEM-148.
Format: cell-based, Escherichia coli
Description: as §1, §2, §3, §4

Row | SMILES | Interoretation
41 | O=C1CN(/N=C/c2ccc([N+](=O)[O-])o2)C(=O)N1 [Nitrofurantoin] | S
42 | C[C@H]1COc2c(N3CCN(C)CC3)c(F)cc3c(=O)c(C(=O)O)cn1c23 [Levofloxacin] | S
43 | CO[C@@]1(NC(=O)Cc2cccs2)C(=O)N2C(C(=O)O)=C(COC(N)=O)CS[C@@H]21 [Cefoxitin] | S
44 | CNC(C)C1CCC(N)C(OC2C(N)CC(N)C(OC3OCC(C)(O)C(NC)C3O)C2O)O1 (stereo not shown) [Gentamicin] | S

Same assay, conditions: VITEK 2 AST card

Row | SMILES | Interpretation
45 | O=C1CN(/N=C/c2ccc([N+](=O)[O-])o2)C(=O)N1 [Nitrofurantoin] | S
46 | C[C@H]1COc2c(N3CCN(C)CC3)c(F)cc3c(=O)c(C(=O)O)cn1c23 [Levofloxacin] | S
47 | CO[C@@]1(NC(=O)Cc2cccs2)C(=O)N2C(C(=O)O)=C(COC(N)=O)CS[C@@H]21 [Cefoxitin] | S
48 | CNC(C)C1CCC(N)C(OC2C(N)CC(N)C(OC3OCC(C)(O)C(NC)C3O)C2O)O1 (stereo not shown) [Gentamicin] | S

The compounds below were run on E. coli TEM-16 (assay: VITEK 2 AST antimicrobial susceptibility testing). Settings: E. coli TEM-16.
Format: cell-based, Escherichia coli
Description: as §1, §2, §3, §4

Row | SMILES | Interoretation
49 | O=C1CN(/N=C/c2ccc([N+](=O)[O-])o2)C(=O)N1 [Nitrofurantoin] | S
50 | C[C@H]1COc2c(N3CCN(C)CC3)c(F)cc3c(=O)c(C(=O)O)cn1c23 [Levofloxacin] | S
51 | CO[C@@]1(NC(=O)Cc2cccs2)C(=O)N2C(C(=O)O)=C(COC(N)=O)CS[C@@H]21 [Cefoxitin] | S
52 | CNC(C)C1CCC(N)C(OC2C(N)CC(N)C(OC3OCC(C)(O)C(NC)C3O)C2O)O1 (stereo not shown) [Gentamicin] | S

Same assay, conditions: VITEK 2 AST card

Row | SMILES | Interpretation
53 | O=C1CN(/N=C/c2ccc([N+](=O)[O-])o2)C(=O)N1 [Nitrofurantoin] | S
54 | C[C@H]1COc2c(N3CCN(C)CC3)c(F)cc3c(=O)c(C(=O)O)cn1c23 [Levofloxacin] | S
55 | CO[C@@]1(NC(=O)Cc2cccs2)C(=O)N2C(C(=O)O)=C(COC(N)=O)CS[C@@H]21 [Cefoxitin] | S
56 | CNC(C)C1CCC(N)C(OC2C(N)CC(N)C(OC3OCC(C)(O)C(NC)C3O)C2O)O1 (stereo not shown) [Gentamicin] | S

These compounds were tested on E. coli TEM-206 (assay: VITEK 2 AST antimicrobial susceptibility testing). Settings: E. coli TEM-206.
Format: cell-based, Escherichia coli
Description: as §1, §2, §3, §4

Row | SMILES | Interoretation
57 | O=C1CN(/N=C/c2ccc([N+](=O)[O-])o2)C(=O)N1 [Nitrofurantoin] | S
58 | C[C@H]1COc2c(N3CCN(C)CC3)c(F)cc3c(=O)c(C(=O)O)cn1c23 [Levofloxacin] | R
59 | CO[C@@]1(NC(=O)Cc2cccs2)C(=O)N2C(C(=O)O)=C(COC(N)=O)CS[C@@H]21 [Cefoxitin] | S
60 | CNC(C)C1CCC(N)C(OC2C(N)CC(N)C(OC3OCC(C)(O)C(NC)C3O)C2O)O1 (stereo not shown) [Gentamicin] | S

Same assay, conditions: VITEK 2 AST card

Row | SMILES | Interpretation
61 | O=C1CN(/N=C/c2ccc([N+](=O)[O-])o2)C(=O)N1 [Nitrofurantoin] | S
62 | C[C@H]1COc2c(N3CCN(C)CC3)c(F)cc3c(=O)c(C(=O)O)cn1c23 [Levofloxacin] | R
63 | CO[C@@]1(NC(=O)Cc2cccs2)C(=O)N2C(C(=O)O)=C(COC(N)=O)CS[C@@H]21 [Cefoxitin] | S
64 | CNC(C)C1CCC(N)C(OC2C(N)CC(N)C(OC3OCC(C)(O)C(NC)C3O)C2O)O1 (stereo not shown) [Gentamicin] | S
